The text below walks through data of article PMC4498246, “Synthesis, characterization, and pharmacological evaluation of novel azolo- and azinothiazinones containing 2,4-dihydroxyphenyl substituent as anticancer agents” (Monatshefte Fur Chemie, 2015).

One may read the IC50 as the point on the concentration scale where inhibition reaches its midpoint.

Assay type in all cases: cell-based
Data set [1] deals with normal human skin fibroblasts HSF. The experiment in a line: LDH cytotoxicity assay, skin fibroblasts. As to conditions: 24 h; for Effect on death cells in the culture (protective properties, LDH): 10–100 μmol dm^−3. The method, then:
Additionally, the influence of compounds on normal human skin fibroblast primary culture (HSF) was assessed. HSF cells were exposed to compounds (10–100 μmol dm^−3) for 24 h and the level of lactic dehydrogenase (LDH) released from the damaged cells was measured (LDH method). […] Only compound 2c in all tested concentrations and 2b in the concentration 100 μmol dm^−3 were highly toxic for skin fibroblasts. […] This may indicate protective properties of the compounds.
(§1) Human non-small cell lung cancer A549 (Cat. No. 86012804), human colon adenocarcinoma HT-29 (Cat. No. 91072201), rat glioma C6 (Cat. No. 92090409) cell lines were obtained from the PHE Culture Collections (Public Health England Culture Collections, Porton Down, Salisbury, UK). Primary culture of normal human skin fibroblasts (HSF) was obtained by the outgrowth technique from skin explants of young persons in our laboratory. The cells were kept in the following culture media purchased from Sigma (Sigma Chemicals, St. Louis, MO, USA): A549—3:1 mixture of DMEM and Nutrient mixture F-12 Ham; C6 and HSF—DMEM, HT-29—1:1 mixture of DMEM and Nutrient mixture F-12 Ham. All media were supplemented with 10 % FBS (Sigma), penicillin (100 U cm^−3, Sigma) and streptomycin (100 μg cm^−3, Sigma). The cultures were kept at 37 °C in a humidified atmosphere of 95 % air and 5 % CO2.
Skin fibroblasts HSF were plated on 96-well microplates at a density of 1 × 10^5 cells cm^−3. The following day, the culture medium was removed and the cells exposed to serial dilutions of compounds (10, 25, 50, and 100 μmol dm^−3) diluted in a fresh culture medium with a reduced amount of FBS (2 %). Cytotoxicity was detected after 24 h with the use In Vitro Toxicology Assay Kit, Lactic Dehydrogenase based (Sigma). The assay is based on the reduction of NAD by the action of lactic dehydrogenase (LDH) released from damaged cells. The resulting NADH is utilized in the stoichiometric conversion of a tetrazolium dye. The resulting coloured compound is measured spectrophotometrically. The test was carried out according to the kit procedure. The colour product was quantified spectrophotometrically at 450 nm wavelength using an Elx800 microplate reader.

In data set [2] the test system is human non-small cell lung cancer A549. The experiment in a line: MTT proliferation assay, A549. As to conditions: A549 cells, 96 h. The method, then: (§2) The anticancer effect of compounds was tested in non-small cell lung cancer A549, colon carcinoma HT-29, and glioma C6 cells. The cells were exposed to either culture medium as the control culture or the compounds in concentrations of 10, 25, 50, and 100 μmol dm^−3. […] Cisplatin was used as a reference drug.
as §1
(§3) Cancer cells were plated on 96-well microplates at a density of 1 × 10^4 (A549), 3 × 10^4 (HT-29), and 0.5 × 10^4 (C6) cells cm^−3. Next day, the culture medium was removed and the cells exposed to serial dilutions of compounds (10, 25, 50, and 100 μmol dm^−3) in a fresh medium. Cell proliferation was assessed after 96 h using the MTT method in which the yellow tetrazolium salt (MTT) is metabolized by viable cells to purple formazan crystals. The cancer cells were incubated for 3–4 h with MTT solution (5 mg cm^−3). Formazan crystals were solubilized overnight in the SDS buffer (10 % SDS in 0.01 mol dm^−3 HCl) and the product quantified spectrophotometrically by measuring absorbance at the 570 nm wavelength using a Elx800 microplate reader (BIO-TEK, Highland Park, Winooski, Vermont, USA).
(In general: Tetrazolium assays rely on reduction of a dye to a coloured formazan, in cell work by metabolically active cells.)

The test system of a further data set is rat glioma C6 cells. The experiment in a line: MTT proliferation assay, glioma C6. The conditions noted are these: 96 h. The method, then: as §2, §1, §3
Data set [3] deals with human colon carcinoma HT-29. The experiment in a line: MTT proliferation assay, HT-29. The conditions noted are these: HT-29 cells, 96 h. The protocol: as §2, §1, §3

Turning to `Cc1c(O)ccc(-c2nc3n[nH]cc3c(=O)s2)c1O` [1a, 6-(2,4-Dihydroxy-3-methylphenyl)pyrazolo[3,4-d][1,3]thiazin-4(2H)-one], in data set [1], the “Effect on death cells in the culture (protective properties, LDH)” value (“Effect on death cells in the culture” for short) is listed as “induced a decrease of death cells in the culture”. For the same molecule, the IC50 in data set [2] (Homo sapiens) was 9.2 µM; in the data set on rat glioma C6 cells (Rattus norvegicus) it was 17.2 µM; in data set [3] (Homo sapiens) it was 102 µM.
As for `Cc1cc(-c2nc3n[nH]cc3c(=O)s2)c(O)cc1O` [1b, 6-(2,4-Dihydroxy-5-methylphenyl)pyrazolo[3,4-d][1,3]thiazin-4(2H)-one], the IC50 stood at 35.8 µM in the data set on rat glioma C6 cells (Rattus norvegicus) and 109 µM in data set [3] (Homo sapiens).
For `CCc1cc(-c2nc3n[nH]cc3c(=O)s2)c(O)cc1O` [1c, 6-(5-Ethyl-2,4-dihydroxyphenyl)pyrazolo[3,4-d][1,3]thiazin-4(2H)-one], the “Effect on death cells in the culture” value in data set [1] is reported as “induced a decrease of death cells in the culture”. Also, the results for the IC50 (in data set [2] (Homo sapiens); in the data set with rat glioma C6 cells (Rattus norvegicus); in data set [3] (Homo sapiens)) were 32.2 µM, 23.1 µM and 20.9 µM, respectively.
Molecule `COc1c(O)ccc(-c2nc3n[nH]cc3c(=O)s2)c1O` [1e, 6-(2,4-Dihydroxy-3-methoxyphenyl)pyrazolo[3,4-d][1,3]thiazin-4(2H)-one] gave an IC50 in the data set on rat glioma C6 cells (Rattus norvegicus) of 101 µM.
In the case of `CCCc1nn(C)c2c(=O)sc(-c3ccc(O)cc3O)nc12` [2a, 5-(2,4-Dihydroxyphenyl)-1-methyl-3-propylpyrazolo[4,3-d][1,3]thiazin-7(1H)-one], the IC50 in data set [2] (Homo sapiens) stood at 56.1 µM; with rat glioma C6 cells (Rattus norvegicus), 48.9 µM.
As for `CCCc1nn(C)c2c(=O)sc(-c3ccc(O)c(C)c3O)nc12` [2b, 5-(2,4-Dihydroxy-3-methylphenyl)-1-methyl-3-propylpyrazolo[4,3-d][1,3]thiazin-7(1H)-one], the “Cytotoxicity (LDH release)” value in data set [1] (concentration 100 μmol dm^−3) was “highly toxic”.
Turning to `CCCc1nn(C)c2c(=O)sc(-c3cc(C)c(O)cc3O)nc12` [2c, 5-(2,4-Dihydroxy-5-methylphenyl)-1-methyl-3-propylpyrazolo[4,3-d][1,3]thiazin-7(1H)-one], the “Cytotoxicity (LDH release)” value in data set [1] (all tested concentrations (10–100 μmol dm^−3)) is on record as “highly toxic”. Further, the IC50 in the data set on rat glioma C6 cells (Rattus norvegicus) amounted to 27.1 µM; in data set [3] (Homo sapiens), 157 µM.
For `CCCc1nn(C)c2c(=O)sc(-c3cc(CC)c(O)cc3O)nc12` [2d, 5-(5-Ethyl-2,4-dihydroxyphenyl)-1-methyl-3-propylpyrazolo[4,3-d][1,3]thiazin-7(1H)-one], the IC50 was found to be 35 µM in data set [2] (Homo sapiens) and 32.2 µM in the data set on rat glioma C6 cells (Rattus norvegicus).
The molecule `CCCc1nn(C)c2c(=O)sc(-c3cc(Cl)c(O)cc3O)nc12` [2e, 5-(5-Chloro-2,4-dihydroxyphenyl)-1-methyl-3-propylpyrazolo[4,3-d][1,3]thiazin-7(1H)-one] registered an IC50 in the data set with rat glioma C6 cells (Rattus norvegicus) of 31.8 µM.
As for `Cc1c(O)ccc(-c2nc3[nH]cnc3c(=O)s2)c1O` [3a, 5-(2,4-Dihydroxy-3-methylphenyl)imidazo[4,5-d][1,3]thiazin-7(3H)-one], the “Effect on death cells in the culture” value in data set [1] is recorded as “induced a decrease of death cells in the culture”. Besides, the results for the IC50 (in data set [2] (Homo sapiens); in the data set with rat glioma C6 cells (Rattus norvegicus)) were 48.8 µM and 33.1 µM, respectively.
As for `Cc1cc(-c2nc3[nH]cnc3c(=O)s2)c(O)cc1O` [3b, 5-(2,4-Dihydroxy-5-methylphenyl)imidazo[4,5-d][1,3]thiazin-7(3H)-one], in data set [1], the “Effect on death cells in the culture” value is “induced a decrease of death cells in the culture”.
On to `CCc1cc(-c2nc3[nH]cnc3c(=O)s2)c(O)cc1O` [3c, 5-(5-Ethyl-2,4-dihydroxyphenyl)imidazo[4,5-d][1,3]thiazin-7(3H)-one], for which the “Effect on death cells in the culture” value in data set [1] is recorded as “induced a decrease of death cells in the culture”. The IC50 in data set [2] (Homo sapiens) turned out to be 49.8 µM; with rat glioma C6 cells (Rattus norvegicus), 8.2 µM; in data set [3] (Homo sapiens), 75.4 µM.
`O=c1sc(-c2cc(Cl)c(O)cc2O)nc2[nH]cnc12` [3d, 5-(5-Chloro-2,4-dihydroxyphenyl)imidazo[4,5-d][1,3]thiazin-7(3H)-one]: inhibition with rat glioma C6 cells (Rattus norvegicus) was half-maximal at 53.5 µM (IC50).
On to `Cc1cc(-c2nc3[nH]cnc3c(=O)s2)c(O)cc1O` [4a, 5-(2,4-Dihydroxy-5-methylphenyl)imidazo[4,5-d][1,3]thiazin-7(1H)-one], for which the “Effect on death cells in the culture” value in data set [1] is listed as “induced a decrease of death cells in the culture”.
Turning to `CCc1cc(-c2nc3nc[nH]c3c(=O)s2)c(O)cc1O` [4b, 5-(5-Ethyl-2,4-dihydroxyphenyl)imidazo[4,5-d][1,3]thiazine-7(1H)-one], inhibition with rat glioma C6 cells (Rattus norvegicus) was half-maximal at 89.7 µM (IC50).
Regarding `O=c1sc(-c2cc(Cl)c(O)cc2O)nc2nc[nH]c12` [4c, 5-(5-Chloro-2,4-dihydroxyphenyl)imidazo[4,5-d][1,3]thiazine-7(1H)-one], the IC50 in data set [2] (Homo sapiens) worked out at 46.7 µM; with rat glioma C6 cells (Rattus norvegicus), 18.3 µM; in data set [3] (Homo sapiens) it was 61.4 µM.
As for `N.N.[Cl][Pt][Cl]` [cisplatin, reference compound], the values for the IC50 (in data set [2]; with rat glioma C6 cells; in data set [3]) were 4.3 µM, 0.4 µM and 6 µM, respectively.
